± gives the expanded uncertainty stated by the source.
Tests used:
[1] = xn = mol fraction of the nth substance listed; settings: 298.15 K, 101.3 kPa, Liquid; for speed of sound: Frequency=3 MHz, Single path-length method; for mass density: Vibrating tube method
[2] = refractive index (Na D-line) (dimensionless); xn = mol fraction of the nth substance listed; settings: 298.15 K, 101.3 kPa, Liquid, Standard Abbe refractometry
[3] = 298.15 K, 101.33 kPa, Liquid; for speed of sound: Single path-length method; for mass density: Vibrating tube method
[4] = Boiling temperature at pressure P; settings: 101.3 kPa; Liquid; Ebulliometric method (Recirculating still)
[5] = refractive index (Na D-line) (dimensionless); settings: 298.15 K; 101.33 kPa; Liquid; Standard Abbe refractometry

CCCCO [butan-1-ol] + CC(C)CC(C)(C)C
x2 = 0
Settings | mass density [kg/m3] | refractive index | speed of sound [m/s]
[1] | 805.78 ± 0.91 | – | 1240.1 ± 1.1
[2] | – | 1.39725 ± 0.00033 | –

CC(C)CC(C)(C)C [2,2,4-trimethylpentane] + CCCCOCCCC
x1 = 1
Settings | mass density [kg/m3] | refractive index | speed of sound [m/s]
[1] | 687.71 ± 0.91 | – | 1082.6 ± 1.1
[2] | – | 1.38898 ± 0.00033 | –

CC(C)CC(C)(C)C [2,2,4-trimethylpentane] + CCCCO
Settings | mass density, [1] [kg/m3] | refractive index, [2] | speed of sound, [1] [m/s]
x1 = 0.0518 | 795.39 ± 0.93 | 1.39663 ± 0.00033 | 1223.4 ± 1.2
x1 = 0.1022 | 785.94 ± 0.93 | 1.39603 ± 0.00033 | 1208.3 ± 1.2
x1 = 0.1512 | 777.34 ± 0.93 | 1.39545 ± 0.00033 | 1194.3 ± 1.1
x1 = 0.2028 | 768.9 ± 0.92 | 1.39484 ± 0.00033 | 1181.5 ± 1.1
x1 = 0.2535 | 761.12 ± 0.92 | 1.39426 ± 0.00033 | 1169.4 ± 1.1
x1 = 0.3042 | 753.81 ± 0.92 | 1.39372 ± 0.00033 | 1157.9 ± 1.1
x1 = 0.3535 | 747.12 ± 0.92 | 1.39318 ± 0.00033 | 1148.6 ± 1.1
x1 = 0.4049 | 740.56 ± 0.92 | 1.39266 ± 0.00033 | 1139.1 ± 1.1
x1 = 0.4534 | 734.72 ± 0.92 | 1.39218 ± 0.00033 | 1130.8 ± 1.1
x1 = 0.5032 | 729.09 ± 0.92 | 1.39173 ± 0.00033 | 1123.4 ± 1.1
x1 = 0.5534 | 723.73 ± 0.92 | 1.39128 ± 0.00033 | 1116.6 ± 1.1
x1 = 0.6041 | 718.63 ± 0.92 | 1.39088 ± 0.00033 | 1110.3 ± 1.1
x1 = 0.6558 | 713.71 ± 0.92 | 1.3905 ± 0.00033 | 1104.5 ± 1.1
x1 = 0.7046 | 709.35 ± 0.92 | 1.39016 ± 0.00033 | 1099.6 ± 1.1
x1 = 0.7521 | 705.31 ± 0.92 | 1.38988 ± 0.00033 | 1095.4 ± 1.1
x1 = 0.8047 | 701.05 ± 0.92 | 1.38958 ± 0.00033 | 1091.1 ± 1.1
x1 = 0.8521 | 697.48 ± 0.92 | 1.38934 ± 0.00033 | 1087.9 ± 1.1
x1 = 0.9005 | 694.03 ± 0.92 | 1.38914 ± 0.00033 | 1085.1 ± 1.1
x1 = 0.9502 | 690.74 ± 0.92 | 1.38897 ± 0.00033 | 1082.8 ± 1.1
x1 = 1 | 687.79 ± 0.91 | 1.38898 ± 0.00033 | 1082.8 ± 1.1

CC(C)CC(C)(C)C [2,2,4-trimethylpentane]
Settings | Boiling temperature at pressure P [°C] | mass density [kg/m3] | refractive index | speed of sound [m/s]
[3] | – | 687.824 ± 0.92 | – | 1082.8 ± 1.1
[4] | 99.01 ± 0.05 | – | – | –
[5] | – | – | 1.38898 ± 0.00033 | –

CCCCO [butan-1-ol]
Settings | mass density [kg/m3] | refractive index | speed of sound [m/s]
[3] | 805.769 ± 0.91 | – | 1240.1 ± 1.1
[5] | – | 1.39725 ± 0.00033 | –

Reference: the NIST ThermoML archive (doi:10.1016/j.fluid.2018.07.027)
